# Where a name gives a salt, the structure may show the parent alone.
# Target: human β2 adrenergic receptor (Homo sapiens, UniProt P07550)
# Test: cell-based
# Details: not given
# Experimental: The activity of the test compounds on human β-adrenergic receptors was determined with Chinese hamster ovary (CHO) cells transfected with human β2, or β1 adrenergic receptors. Agonist activity is indicated by increased cAMP levels in the CHO cells. Selectivity of the test compounds for the β3 receptor was assessed by comparison with results in β2 and β1 adrenergic receptor transfected cells.
# 1). Chinese hamster ovary (CHO) cells transfected with human β2, or β1 adrenergic receptors were used in the assay.
# 2). Cells were grown to confluent conditions in 24 well plates.
# 3). Drugs were dissolved in DMSO at a concentration of 10 μM.
# 4). Cells were incubated with drug at 10 nM concentration for 10 min at 37° C.
# 5). Cell cAMP concentrations were assayed using a scintillation proximity assay kit from Amersham Corp., Chicago, Ill.
# 6). Activities for the test compounds are expressed as a percentage of the isoproterenol response.
# Production of the CHO cells transfected with human β2, or β1 adrenergic receptors, and compound test procedures utilizing the CHO cells, are described by Emorine et al. in their article "Molecular Characterization of the Human Beta3 -Adrenergic Receptor", Science 1989, 245(8), 1118-1121 and by Muzzin et al. in the article "An Adipose Tissue-Specific Beta3 -Adrenergic Receptor", J. Biol. Chem.1991, 266, 24053-24058.
# ^a Human β receptors expressed in Chinese hamster ovary cells,
# compounds tested at 10 nM, results expressed as % of isoproterenol
# activity (increase in cAMP) at 10 μM. EC50 (μM) values
# determined for selected compounds.
# human β2 adrenergic receptor, sequence (P07550 whole entry): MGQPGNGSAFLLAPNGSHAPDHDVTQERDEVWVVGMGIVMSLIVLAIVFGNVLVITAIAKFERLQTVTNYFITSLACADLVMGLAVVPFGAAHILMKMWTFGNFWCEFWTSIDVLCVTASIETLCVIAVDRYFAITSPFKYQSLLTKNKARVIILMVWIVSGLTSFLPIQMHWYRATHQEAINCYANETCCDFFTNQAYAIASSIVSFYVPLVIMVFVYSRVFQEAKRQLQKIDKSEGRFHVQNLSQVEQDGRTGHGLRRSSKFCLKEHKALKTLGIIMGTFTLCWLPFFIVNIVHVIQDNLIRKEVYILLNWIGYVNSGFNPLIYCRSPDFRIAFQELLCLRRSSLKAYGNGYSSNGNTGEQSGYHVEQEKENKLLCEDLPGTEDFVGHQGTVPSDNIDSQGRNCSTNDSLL
row,SMILES,EC50 [nM]
1,"CC(Cc1ccc2c(c1)OC(C(=O)O)(C(=O)OC(C)C)O2)NCC(O)c1cccc(Cl)c1 (stereo not shown) [Example 22, 5-{2-[2-(3-Chloro-phenyl)-2-hydroxy-ethylamino]-propyl}-benzo[1,3]dioxole-2,2-dicarboxylic acid isopropyl ester]",15

# Same assay, conditions: 10 min; compounds tested at 10 nM, isoproterenol at 10 μM; CHO cells, 10 min at 37° C; read-out: β2: % of isoproterenol activity (increase in cAMP)
row,SMILES,activation at 0.01 µM [%]
1,"C[C@H](Cc1ccc2c(c1)OC(C(=O)OCC13CC4CC(CC(C4)C1)C3)(C(=O)OCC13CC4CC(CC(C4)C1)C3)O2)NC[C@H](O)c1cccc(Cl)c1 (stereo partly drawn) [Example 77, 5-{(2R)-2-[(2R)-2-(3-Chloro-phenyl)-2-hydroxy-ethylamino]-propyl}-benzo[1,3]dioxole-2,2-dicarboxylic acid bis-adamantan-1-ylmethyl ester]",5
2,CC(Cc1ccc2c(c1)OC(C(=O)OC(C)OC(=O)C(C)(C)C)(C(=O)OC(C)OC(=O)C(C)(C)C)O2)NCC(O)c1cccc(Cl)c1 (stereo not shown) [Example 52],2
3,"CC(Cc1ccc2c(c1)OC(C(=O)O)(C(=O)OCCOC(C)(C)C)O2)NCC(O)c1cccc(Cl)c1 (stereo not shown) [Example 7, 5-{2-[2-(3-Chloro-phenyl)-2-hydroxy-ethylamino]-propyl}-benzo[1,3]dioxole-2,2-dicarboxylic acid (2-tert-butoxy-ethyl) ester]",2
4,"CCOC(=O)COC(=O)C1(C(=O)OCC(=O)OCC)Oc2ccc(CC(C)NCC(O)c3cccc(Cl)c3)cc2O1 (stereo not shown) [Example 28, 5-{2-[2-(3-Chloro-phenyl)-2-hydroxy-ethylamino]-propyl}-benzo[1,3]dioxole-2,2-dicarboxylic acid bis-ethoxycarbonylmethyl ester]",2
5,"CCCCCC(=O)OCOC(=O)C1(C(=O)OCOC(=O)CCCCC)Oc2ccc(CC(C)NCC(O)c3cccc(Cl)c3)cc2O1 (stereo not shown) [Example 48, 5-{2-[2-(3-Chloro-phenyl)-2-hydroxyethylamino]propyl}benzo[1,3] dioxole-2,2-dicarboxylic acid bis-hexanoyloxymethyl ester]",4
6,"CC(C)CCCOC(=O)C1(C(=O)OCCCC(C)C)Oc2ccc(CC(C)NCC(O)c3cccc(Cl)c3)cc2O1 (stereo not shown) [Example 35, 5-{2-[2-(3-Chloro-phenyl)-2-hydroxy-ethylamino]-propyl}-benzo[1,3]dioxole-2,2-dicarboxylic acid bis-(4-methyl-pentyl) ester]",4
7,"CC(Cc1ccc2c(c1)OC(C(=O)OCC1(C)CC1)(C(=O)OCC1(C)CC1)O2)NCC(O)c1cccc(Cl)c1 (stereo not shown) [Example 39, 5-{2-[2-(3-Chloro-phenyl)-2-hydroxy-ethylamino]-propyl}-benzo[1,3]dioxole-2,2-dicarboxylic acid bis-(1-methyl-cyclopropylmethyl) ester]",1
8,CC(Cc1ccc2c(c1)OC(C(=O)OC(C)OC(=O)CC(C)(C)C)(C(=O)OC(C)OC(=O)CC(C)(C)C)O2)NCC(O)c1cccc(Cl)c1 (stereo not shown) [Example 54],7
9,"CCCOC(=O)COC(=O)C1(C(=O)OCC(=O)OCCC)Oc2ccc(CC(C)NCC(O)c3cccc(Cl)c3)cc2O1 (stereo not shown) [Example 25, 5-{2-[2-(3-Chloro-phenyl)-2-hydroxy-ethylamino]-propyl}-benzo[1,3]dioxole-2,2-dicarboxylic acid bis-propoxycarbonylmethyl ester]",6
10,"CC(Cc1ccc2c(c1)OC(C(=O)OCC1CCCCC1)(C(=O)OCC1CCCCC1)O2)NCC(O)c1cccc(Cl)c1 (stereo not shown) [Example 34, 5-{2-[2-(3-Chloro-phenyl)-2-hydroxy-ethylamino]-propyl}-benzo[1,3]dioxole-2,2-dicarboxylic acid bis-cyclohexylmethyl ester]",2
11,"CC(=O)OCOC(=O)C1(C(=O)OCOC(C)=O)Oc2ccc(CC(C)NCC(O)c3cccc(Cl)c3)cc2O1 (stereo not shown) [Example 42, 5-{2-[2-(3-Chloro-phenyl)-2-hydroxyethylamino]propyl}benzo[1,3] dioxole-2,2-dicarboxylic acid bis-acetoxymethyl ester]",0
12,"CC(Cc1ccc2c(c1)OC(C(=O)O)(C(=O)OCCc1ccsc1)O2)NCC(O)c1cccc(Cl)c1 (stereo not shown) [Example 72, 5-{2-[2-(3-Chloro-phenyl)-2-hydroxy-ethylamino]-propyl}-benzo[1,3]dioxole-2,2-dicarboxylic acid 2-(3-Thienyl)ethyl ester]",13
13,"COC(=O)C(C)OC(=O)C1(C(=O)OC(C)C(=O)OC)Oc2ccc(CC(C)NCC(O)c3cccc(Cl)c3)cc2O1 (stereo not shown) [Example 26, 5-{2-[2-(3-Chloro-phenyl)-2-hydroxy-ethylamino]-propyl}-benzo[1,3]dioxole-2,2-dicarboxylic acid bis-(1-methoxycarbonyl-ethyl) ester]",7
14,"CC(Cc1ccc2c(c1)OC(C(=O)OCOC(=O)C1CCCCC1)(C(=O)OCOC(=O)C1CCCCC1)O2)NCC(O)c1cccc(Cl)c1 (stereo not shown) [Example 50, 5-{2-[2-(3-Chloro-phenyl)-2-hydroxyethylamino]propyl}benzo[1,3] dioxole-2,2-dicarboxylic acid bis-cyclohexanecarbonyloxymethyl ester]",0
15,"CCC(=O)OCOC(=O)C1(C(=O)OCOC(=O)CC)Oc2ccc(CC(C)NCC(O)c3cccc(Cl)c3)cc2O1 (stereo not shown) [Example 43, 5-{2-[2-(3-Chloro-phenyl)-2-hydroxyethylamino]propyl}benzo[1,3] dioxole-2,2-dicarboxylic acid bis-propionyloxymethyl ester]",0
16,"CC(Cc1ccc2c(c1)OC(C(=O)OCCC1CCCC1)(C(=O)OCCC1CCCC1)O2)NCC(O)c1cccc(Cl)c1 (stereo not shown) [Example 41, 5-{2-[2-(3-Chloro-phenyl)-2-hydroxy-ethylamino]-propyl}-benzo[1,3]dioxole-2,2-dicarboxylic acid bis-(2-cyclopentyl-ethyl) ester]",22
17,"CC(Cc1ccc2c(c1)OC(C(=O)OCOC(=O)c1ccccc1)(C(=O)OCOC(=O)c1ccccc1)O2)NCC(O)c1cccc(Cl)c1 (stereo not shown) [Example 56, 5-{2-[2-(3-Chloro-phenyl)-2-hydroxy-ethylamino]propyl}benzo[1,3]dioxole-2,2-dicarboxylic acid bis-benzoyloxymethyl ester]",8
18,"CCCCCCCCOC(=O)C1(C(=O)OCCCCCCCC)Oc2ccc(CC(C)NCC(O)c3cccc(Cl)c3)cc2O1 (stereo not shown) [Example 12, 5-{2-[2-(3-Chloro-phenyl)-2-hydroxy-ethylamino]-propyl}-benzo[1,3]dioxole-2,2-dicarboxylic acid dioctyl ester]",1
19,"CC(Cc1ccc2c(c1)OC(C(=O)OCOC(=O)CC(C)(C)C)(C(=O)OCOC(=O)CC(C)(C)C)O2)NCC(O)c1cccc(Cl)c1 (stereo not shown) [Example 53, 5-{2-[2-(3-Chloro-phenyl)-2-hydroxyethylamino]propyl}benzo[1,3] dioxole-2,2-dicarboxylic acid bis-(3,3-dimethyl-butyryloxymethyl) ester]",2

# Same assay, conditions: CHO, 10 min, read-out: β2: % of isoproterenol activity (increase in cAMP)
row,SMILES,activation at 0.01 µM [%]
1,"CCOCCOC(=O)C1(C(=O)OCCOCC)Oc2ccc(CC(C)NCC(O)c3cccc(Cl)c3)cc2O1 (stereo not shown) [Example 5, 5-{2-[2-(3-Chloro-phenyl)-2-hydroxy-ethylamino]-propyl}-benzo[1,3]dioxole-2,2-dicarboxylic acid bis-(2-ethoxy-ethyl) ester hydrochloride salt]",4
2,"CCCCOCCOC(=O)C1(C(=O)OCCOCCCC)Oc2ccc(CC(C)NCC(O)c3cccc(Cl)c3)cc2O1 (stereo not shown) [Example 3, 5-{2-[2-(3-Chloro-phenyl)-2-hydroxy-ethylamino]-propyl}-benzo[1,3]dioxole-2,2-dicarboxylic acid bis-(2-butoxy-ethyl) ester hydrochloride salt]",0
3,"COCCOC(=O)C1(C(=O)OCCOC)Oc2ccc(CC(C)NCC(O)c3cccc(Cl)c3)cc2O1 (stereo not shown) [Example 1, 5-{2-[2-(3-Chloro-phenyl)-2-hydroxy-ethylamino]-propyl}-benzo[1,3]dioxole-2,2-dicarboxylic acid bis-(2-methoxy-ethyl) ester hydrochloride salt]",4
4,"Cc1cccc(CCOC(=O)C2(C(=O)OCCc3cccc(C)c3)Oc3ccc(C[C@@H](C)NC[C@H](O)c4cccc(Cl)c4)cc3O2)c1 [Example 97, 5-{(2R)-2-[(2R)-2-(3-Chloro-phenyl)-2-hydroxy-ethylamino]-propyl}-benzo[1,3]dioxole-2,2-dicarboxylic acid bis-(2-m-tolyl-ethyl) ester hydrochloride salt]",4
5,"CC(Cc1ccc2c(c1)OC(C(=O)OCCOc1ccccc1)(C(=O)OCCOc1ccccc1)O2)NCC(O)c1cccc(Cl)c1 (stereo not shown) [Example 4, 5-{2-[2-(3-Chloro-phenyl)-2-hydroxy-ethylamino]-propyl}-benzo[1,3]dioxole-2,2-dicarboxylic acid bis-(2-phenoxy-ethyl) ester hydrochloride salt]",1

# — patent US5914339A, “Substituted 1,3-benzodioxoles” (American Home Products Corporation, priority 1997, dated 1999)
